Earlier results on 1 compound are cited in patent US6090852A, “Substituted alpha-aminosulphonyl-acetohydroxamic acids as therapeutic agents” (Pfizer Inc, priority 1998, dated 2000).

The test system of this series is human ovarian carcinoma xenografts. The settings on record: mice carrying human ovarian carcinoma xenografts; Cancer Res., 1993, 53, 2087. For orientation: In xenograft studies the graft and the host belong to different species.

Turning to `CNC(=O)[C@H](Cc1ccccc1)NC(=O)[C@H](CC(C)C)[C@H](CSc1cccs1)C(=O)NO` [BB-94], the survival entry is “prolong the survival” and the tumour burden entry is reported as “decrease the tumour burden”.
